# From patent publication US20230009323A1, “COMPOUNDS AND METHODS FOR THE TREATMENT OF CRYPTOSPORIDIOSIS” (The Broad Institute, Inc., priority 2019, published 2023)
# Tested on: C. parvum (Iowa) Sterling
# Assay: C. parvum (Iowa) Sterling growth in HCT-8 cells
# Type: cell-based
# Conditions: Cryptosporidium parvum
# Description: Studies using farm C. parvum isolates and the C. hominis TU502 isolate were performed by Calibr at Scripps Research (La Jolla, Calif.) in 1,536-well plates using a slightly modified immunofluorescence assay as described in Love, M. S. et al. PLoS neglected tropical diseases 11, e0005373, doi:10.1371/journal.pntd.0005373 (2017), hereby incorporated by reference in its entirety. HCT-8 cell culture medium was replaced with RPMI 1640 medium supplemented with 2% heat-inactivated horse serum, 100 U·mL^−1 penicillin, and […] 24 h prior to infection with the indicated isolate. The C. parvum Iowa isolate was included as a reference in all experiments. Imaging was performed using a Cellnsight CX5 High Content screening platform (Thermo Scientific) with a 10× objective and acquisition of one microscopic field per well. Images were processed using HCS Studio Scan software, and the selected-object count (HCT-8 cells) and spot count (parasitophorous vacuoles) were analyzed in Genedata Screener (version 13.0; Standard). Dose-response curves and EC50 values were calculated using the Smart Fit function of Genedata Analyzer.
smiles,measurement,value
"COc1ccc(NC(=O)N2CCCCN3[C@H](CN(C)C)[C@H](c4ccc(C#Cc5ccccc5)cc4)[C@@H]3C2)cc1 [Compound 11, (8R,9S,10S)-10-((dimethylamino)methyl)-N-(4-methoxyphenyl)-9-(4-(phenylethynyl)phenyl)-1,6-diazabicyclo[6.2.0]decane-6-carboxamide]",EC50,8 nM
